Assay results reported in ChEMBL document CHEMBL3997799, “Synthesis and anti-proliferative activity evaluation of novel benzo[d][1,3] dioxoles-fused 1,4-thiazepines” (Eur J Med Chem, 2017).

Assays:
EC9706 [1] = experiment: Antiproliferative activity against human EC9706 cells after 48 hrs by MTT assay; type: functional, cell-based; conditions: EC9706, 48 h
ECa-109 cell line = experiment: Antiproliferative activity against human ECA109 cells after 48 hrs by MTT assay; type: functional, cell-based; conditions: ECa-109, 48 h
[2] = Potency index, ratio of 5-fluorouracil IC50 to test compound IC50 for human ECA109 cells; type: functional
EC9706 [3] = experiment: Potency index, ratio of 5-fluorouracil IC50 to test compound IC50 for human EC9706 cells; type: functional

| SMILES | IC50 (EC9706 [1]) | IC50 (ECa-109 cell line) | Ratio IC50 [2] | Ratio IC50 (EC9706 [3]) |
| --- | --- | --- | --- | --- |
| Cc1ccccc1C1SCC(=O)Nc2cc3c(cc21)OCO3 (stereo not given) | 33.5 µM | 55.5 µM |  |  |
| CC1SC(c2ccc([N+](=O)[O-])cc2)c2cc3c(cc2NC1=O)OCO3 (stereo not given) | 34.7 µM | 50.4 µM |  |  |
| COc1cc(OC)cc(C2SCC(=O)Nc3cc4c(cc32)OCO4)c1 (stereo not given) | 11.7 µM | 30.3 µM |  |  |
| O=C1CSC(c2cccs2)c2cc3c(cc2N1)OCO3 (stereo not given) | 69.6 µM | 95.5 µM |  |  |
| O=C1CSC(c2ccc(Cl)cc2)c2cc3c(cc2N1)OCO3 (stereo not given) | 34.4 µM | 36.2 µM |  |  |
| CC1SC(c2ccc(Cl)cc2)c2cc3c(cc2NC1=O)OCO3 (stereo not given) | > 200 µM | > 200 µM |  |  |
| COc1ccc(C2SCC(=O)Nc3cc4c(cc32)OCO4)cc1 (stereo not given) | 16.4 µM | 33 µM |  |  |
| O=C1CSC(c2cccc([N+](=O)[O-])c2)c2cc3c(cc2N1)OCO3 (stereo not given) | > 200 µM | > 200 µM |  |  |
| O=C1CSC(c2ccc(F)cc2)c2cc3c(cc2N1)OCO3 (stereo not given) | 106 µM | > 200 µM |  |  |
| COc1ccc(C2SCC(=O)Nc3cc4c(cc32)OCO4)cc1Br (stereo not given) | 8.23 µM | 16.2 µM | 2 - 3 | 2 - 3 |
| O=C1CSC(c2ccc([N+](=O)[O-])cc2)c2cc3c(cc2N1)OCO3 (stereo not given) | 24.9 µM | 42.3 µM |  |  |
| Cc1ccc(C2SC(C)C(=O)Nc3cc4c(cc32)OCO4)cc1 (stereo not given) | > 200 µM | > 200 µM |  |  |
| O=C1CSC(c2ccccc2)c2cc3c(cc2N1)OCO3 (stereo not given) | 43.2 µM | 38.7 µM |  |  |
| O=C1CSC(c2ccco2)c2cc3c(cc2N1)OCO3 (stereo not given) | 30.3 µM | 42 µM |  |  |
| CC1SC(c2cccc([N+](=O)[O-])c2)c2cc3c(cc2NC1=O)OCO3 (stereo not given) | 88.4 µM | 106 µM |  |  |
| Cc1ccc(C2SCC(=O)Nc3cc4c(cc32)OCO4)cc1 (stereo not given) | 17.1 µM | 27.7 µM |  |  |
| O=c1[nH]cc(F)c(=O)[nH]1 [FLUOROURACIL] | 23.3 µM | 30.2 µM |  |  |
| COc1cccc(C2SCC(=O)Nc3cc4c(cc32)OCO4)c1 (stereo not given) | 54.6 µM | 49.6 µM |  |  |
| COc1cc(C2SCC(=O)Nc3cc4c(cc32)OCO4)cc(OC)c1OC (stereo not given) | 70.9 µM | 130 µM |  |  |
